The text below walks through data of patent US20120276098A1, “DRUG FUSIONS AND CONJUGATES WITH EXTENDED HALF LIFE” (priority 2009, published 2012).

Test [1] addresses T1, GLP1R (Mus musculus, UniProt O35659).
T1 construct: expressed in transfected cells; host or cells: melanophores
T1 sequence (O35659 22-463): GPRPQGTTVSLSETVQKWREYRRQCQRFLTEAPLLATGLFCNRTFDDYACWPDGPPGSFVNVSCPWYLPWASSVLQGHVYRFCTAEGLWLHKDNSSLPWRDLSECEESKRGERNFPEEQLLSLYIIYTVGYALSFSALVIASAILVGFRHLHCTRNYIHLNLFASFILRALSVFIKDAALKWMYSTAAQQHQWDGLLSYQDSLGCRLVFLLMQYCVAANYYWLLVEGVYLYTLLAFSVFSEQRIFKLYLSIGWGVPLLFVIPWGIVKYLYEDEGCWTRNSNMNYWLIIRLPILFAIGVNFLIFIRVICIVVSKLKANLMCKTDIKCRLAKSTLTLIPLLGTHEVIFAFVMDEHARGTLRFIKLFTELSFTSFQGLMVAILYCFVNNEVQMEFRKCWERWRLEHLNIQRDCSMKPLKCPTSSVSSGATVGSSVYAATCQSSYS
The test can be described thus: melanophore functional bioassay, mouse GLP1R. It is filed as cell-based. The settings on record: melanophores transfected with receptor. On the procedure: (§1) The bioassay was performed essentially as described in Jayawickreme et al. (2005) Current Protocols in Pharmacology 12.9.1-12.9.16.

Test [2] has as its target T2, GLP1R (Homo sapiens, UniProt P43220). The test can be described thus: GLP-1 receptor binding assay (GLP-1R BA), CHO 6CRE GLP1R luciferase reporter cells. It is filed as cell-based. Also noted: expressed in transfected cells; host or cells: CHO K1 (CHO 6CRE GLP1R cells). On the procedure: Fusions were buffer exchanged into 100 mM […], 20 mM citrate pH 6.2. Meanwhile,CHO 6CRE GLP1R cells (CHO K1 cells (obtainable from the American Type Tissue Collection, ATCC) stably transfected with 6 cAMP response element driving a luciferase reporter gene and also with the human GLP-1 receptor) were seeded at 2×10^5cells/mL in suspension media. Suspension culture was maintained for 24 hours. Cells were then diluted into 15 mM HEPES buffer (obtainable from Sigma), containing 2 mM L glutamine (2.5×10^5 cells/ml) and dispensed into 384-well plates containing 10 ul/well of the compound to be assayed. After the addition of assay control, plates were returned to the incubator for 3 h at 37° C. and 5% CO2. […] Plates were placed in the reader (Viewlux, Perkin Elmer) and pre-incubated for 5 minutes prior to reading the […] and plotting of results. Compound was assayed at a range of concentrations in the presence and absence of 10 uM albumin, allowing a dose response curve to be fitted with and without the albumin.
For orientation: In a reporter assay the amount or activity of a reporter protein is the signal.

For test [3], the target named is T2, GLP1R. The test can be described thus: melanophore functional bioassay, human GLP1R. It is filed as cell-based. Also noted: expressed in transfected cells; host or cells: melanophores. The settings on record: melanophores transfected with receptor. As to the method: as §1
Test [4] deals with diet induced obese (DIO) C57BL/6 mice. The test can be described thus: Chronic obesity efficacy study in diet induced obese (DIO) mice, peptide-AlbudAbs alone and combined. It is filed as in vivo, mouse. On the procedure:
Male diet induced obese (DIO) C57BL/6 mice (Taconic, Hudson, N.Y.) and lean C57BL/6 mice (Taconic, Hudson, N.Y.) were used for all experiments. DIO C57BL/6 mice were group housed and fed a high fat diet (45% fat by kcal) by the vendor from the time of weaning. DIO mice (40-50 g body weight) and age-matched controls were single-housed and maintained at constant temperature (approximately 22° C.) with 12 hr light/dark cycle (lights on from 5:00 AM to 5:00 PM). Mice were given ad libitum access to food (Research Diets D12451, 45% fat for DIO; Lab Diet 5001, 13.5% fat for lean) and water. All animal protocols were approved by the institutional animal care and use committee at GlaxoSmithKline in Research Triangle Park, N.C. The peptide-AlbudAbs were either prepared fresh daily or were prepared once and frozen at −70 deg C. in aliquots. For combination dosing, the drugs were mixed together so that only one injection would be required.
Chronic Obesity Efficacy Studies: DIO C56BL/6 mice and age-matched lean controls were habituated in house for 6 weeks before the start of the study. Animals were dosed every two days between 2-4 pm subcutaneously with a dose volume of 5 ml/kg over a period of 15 days.
A three day vehicle lead in period was used before the start of drug with the first day being vehicle and the second two days being mock injections. Baseline fat mass and lean mass measurements were taken 3-4 days before the start of drug and on day 15 using a QMR instrument (Echo Medical Systems, Houston, Tex.) Body weight measurements were taken every Monday, Wednesday, and Friday starting four days before the first drug dose, with the first measurement being used to randomize the animals. Food hopper weights were measured every weekday starting 4-6 days before the first drug dose, allowing for the calculation of food intake. Animals that created excessive food spillage were removed prior to the beginning of the study. During the study, excess food was removed from the cage and added to the food hopper weights for increased accuracy. Eight to ten animals (n=8-10) were used for the lean control group and eight animals (n=8) were used for all other treatment groups. Sixteen days after the start of drug treatment, animals were fasted for at least 4 hours before collection of whole blood, plasma, and serum samples via terminal cardiac exsanguinations. The whole blood was used to determine the % HbAlc, the plasma was used for a gastrointestinal hormone panel, and the serum was used to access multiple clinical chemistry parameters. Finally, major organs and tissues were collected (heart, kidney, liver, lung, stomach, duodenum, colon, pancreas, brown adipose, white adipose, carcass) on day 16 and fixed in 10% neutral buffered formalin for macroscopic and microscopic histological examination.

The mark [5] stands for this setting: ED80 Doses: PYY-Alb 1.0 mg/kg, Exn-Alb 0.1 mg/kg, Combo.
Setting [6] is: day 16, ED80 doses: Exendin-4-AlbudAb 0.1 mg/kg, Combo ED80.

Like-named read-outs stand apart in the source and are kept apart here. Marks after values point to notes of the source that are not given here.

T2 sequence (P43220 24-463): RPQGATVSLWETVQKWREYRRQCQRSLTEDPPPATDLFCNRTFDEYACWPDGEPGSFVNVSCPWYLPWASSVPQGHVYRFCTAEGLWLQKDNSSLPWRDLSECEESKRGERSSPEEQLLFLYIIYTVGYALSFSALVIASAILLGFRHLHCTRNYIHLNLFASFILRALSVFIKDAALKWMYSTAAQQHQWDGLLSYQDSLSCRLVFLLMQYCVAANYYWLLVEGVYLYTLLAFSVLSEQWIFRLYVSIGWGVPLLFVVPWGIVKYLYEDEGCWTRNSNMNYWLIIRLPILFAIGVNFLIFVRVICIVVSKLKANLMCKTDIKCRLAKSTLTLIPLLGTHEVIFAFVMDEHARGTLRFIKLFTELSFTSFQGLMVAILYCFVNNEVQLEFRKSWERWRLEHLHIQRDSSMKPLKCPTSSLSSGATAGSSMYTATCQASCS

On to “DAT 0115: genetic fusion: exendin-4, (G4S)3 linker, 7h-14 AlbudAb, SEQ ID NO 2”, for which, in the test with GLP1R [1], the “pEC50 Mouse GLP1R” value is 11.06. Moreover, the concentration for a half-maximal effect (EC50) (as a rule, the midpoint of the concentration-response curve) in the test with GLP1R [2] (read-out: GLP-1R BA (10 uM albumin) EC50 (pM) n = 2, presence of 10 uM albumin) was found to be 38 pM. The EC50 with GLP1R [2] (read-out: GLP-1R BA EC50 (pM) n = 3, absence of albumin) came out at 8 pM. In addition, in the test with GLP1R [3], the “pEC50 Human GLP1R” value was 11.36. The “decrease in percent body fat (normalized to changes in vehicle controls)” value in test [4] (15 day treatment, ED20 doses: PYY-AlbudAb 0.1 mg/kg, Exendin-4-AlbudAb 0.01 mg/kg, Combo ED20) worked out at 0.6%. Also, the “decrease in percent body fat” value in test [4] (15 day treatment, ED80 doses: PYY-AlbudAb 1.0 mg/kg, Exendin-4-AlbudAb 0.1 mg/kg, Combo ED80) worked out at 6.8%. For the same substance, in test [4] (ED80 Doses: Exn-Alb 0.1 mg/kg, Combo), the “Insulin % Change from DIO Vehicle” value is on record as “↓-56%”. Moreover, in test [4] (setting [5]), the “ALT % Change from DIO Vehicle” value is given as “↓-57%*”, the “AST % Change from DIO Vehicle” value is given as “↓-41%*”, the “Creatinine % Change from DIO Vehicle” value is given as “↓-17%*” and the “Glucose % Change from DIO Vehicle” value is “↓-27%*”. In test [4] (setting [5]), the “Total Bilirubin % Change from DIO Vehicle” value was “↑21%*” and the “Total Cholesterol % Change from DIO Vehicle” value is on record as “↓-24%*”. In test [4] (Exendin-4-AlbudAb monotherapy groups, level approximately equal to the combination groups), the Ghrelin levels entry is “elevated”. In test [4] (day 7, ED80 doses: PYY-AlbudAb 1.0 mg/kg, Exendin-4-AlbudAb 0.1 mg/kg, Combo ED80 = both mixed), the “decrease in body weight relative to vehicle” value came to 13.0%. In addition, the “inhibition of feeding / food intake” value in test [4] (day 14, ED80 doses: PYY-AlbudAb 1.0 mg/kg, Exendin-4-AlbudAb 0.1 mg/kg, Combo ED80) is on record as 0.8%. Besides, the “decrease in body weight vs. vehicle” value in test [4] (day 15, ED20 doses: PYY-AlbudAb 0.1 mg/kg, Exendin-4-AlbudAb 0.01 mg/kg, Combo ED20 = both mixed, s.c. every two days) worked out at 4.5%. For the same substance, the “decrease in body weight from vehicle” value in test [4] (day 15, ED80 doses: PYY-AlbudAb 1.0 mg/kg, Exendin-4-AlbudAb 0.1 mg/kg, Combo ED80 = both mixed) worked out at 16.8%. The “microscopic change in brown adipose tissue (histopathology)” value in test [4] (day 16, Combo ED20, Exendin-4-AlbudAb 0.01 mg/kg) was “decreased cytoplasmic lipid droplets”. Moreover, the “microscopic change in brown adipose tissue (histopathology)” value in test [4] (day 16, Combo ED80, PYY-AlbudAb 1.0 mg/kg, Exendin-4-AlbudAb 0.1 mg/kg, Exendin-4 0.1 mg/kg) is given as “decreased cytoplasmic lipid droplets”. In test [4] (setting [6]), the “Amylin levels in plasma” value came to 163 pg/mL and the “Leptin levels in plasma” value amounted to 31.4 ng/mL. The fat mass lost in test [4] (treatment period, ED20 doses: PYY-AlbudAb 0.1 mg/kg, Exendin-4-AlbudAb (dose not given), Combo ED20) is 1.4 grams. The body fat lost in test [4] (treatment period, ED80 doses: PYY-AlbudAb 1.0 mg/kg, Exendin-4-AlbudAb (dose not given), Combo ED80) was 5.7 grams.
